From paper PMC10254233, “Synthesis and In Vitro Biological Evaluation of p-Carborane-Based Di-tert-butylphenol Analogs” (Molecules, 2023)

Legend:
[1] = system: primary peritoneal exudate cells; assay: Viability of primary peritoneal exudate cells, CV assay; type: cell-based; settings: 72 h, cells from healthy mice
Procedure: All cells were kept at 37 °C in a humidified atmosphere with 5% CO2.
Primary peritoneal exudates cells (PEC) isolated from C57BL/6 mice were used to estimate the selec-
Mice were obtained from the animal facility at the Institute for Biological Research “Siniša Stanković” - National Institute of the Republic of Serbia, University of Belgrade (Belgrade, Serbia). PEC were cultivated in HEPES-buffered (HEPES = 4-
5% heat-inactivated fetal bovine serum (FBS) and antibiotics under standard growth conditions (37 °C, 5% CO2). For viability determination cells were seeded at a density of 2 x 10^5 cells/well in 96-well plates.
the indicated concentrations for 72 h. Cell viability was determined by the CV test. The data are presented as a mean ± SD from one repre-
sentative out of three independent experiments. *p<0.05 refer to untreated cultures.

HCT116 cells [2] = assay: Cell proliferation assay (CFSE staining); type: cell-based, human; settings: HCT116, IC50 dose, 72 h, compared to R-830
HCT116 cells [3] = assay: Acridine orange (AO) staining for autophagy; type: cell-based, human; settings: HCT116, IC50 dose, 72 h
Text: (§1) Apostat staining confirmed that apoptosis was in correlation with the activation of caspases (Figure 3C). […] The […] production of reactive oxygen species explains the observed effects of the applied treatments, namely inhibition of proliferation and induction of apoptosis (Figure 3E). It is widely accepted that drug-mediated hyperproduction of reactive oxygen species that are not buffered by cellular anti-oxidative protection is responsible for cell death induction. […] The described feature is acquired during disease progression, and it is tightly connected with abnormal blood supply and a hypoxic microenvironment. Therefore, elimination of these molecules results in a rapid decrease in cell viability. […]
Non-adherent cells were removed two hours after seeding and treatment was applied. Cell viability was determined after 72 h using a crystal violet (CV) assay. […]
and R-830-Cb (50 μM) for 72 h. […] After 15 min incubation at room temperature (RT) protected from light the cells were resuspended in AnnV-binding buffer and analysed using flow cytom-etry. HCT116 cells were incubated with pan-caspase inhibitor Apostat for 30 min at 37 °C to determine whether detected apoptosis was mediated by caspase activation. […]

HCT116 cells [4] = assay: Co-treatment with autophagy inhibitors, CV assay; type: cell-based, human; settings: HCT116, 50 µM with 20 µM chloroquine or 1 mM 3-MA, 72 h
Text: This means that the cytotoxic activity of the tested drug is enhanced by the inhibition of autophagy.
(G) HCT116 cells were co-treated with R-830-Cb and 3-methyladenine (3-MA) or chloroquine and viability was estimated by crystal violet (CV) assay. * p < 0.05; *** p < 0.001 in comparison to relevant control.
1.1.3. Measurement of reactive oxygen and nitrogen species (ROS/RNS) generation Dihydrorhodamine 123 (DHR) staining was used for detection of production of ROS/RNS species.
(§2) Finally, after 72 h incubation, cells were washed, tryp-sinized, and analyzed using flow cytometry (CyFlow® Space Partec using the PartecFloMax® software […]
1.1.4. PI staining on chamber slides […]
(§3) (30 µM) and R-830-Cb (50 µM)). […] Finally, for covering the slides fluorescent mounting medium was used and slides were ana-lyzed with Zeiss AxioObserver Z1 inverted fluorescence microscope (Carl Zeiss AG, Oberkochen, Ger-many) at 400 x magnification.
(§4) 1.1.5. Evaluation of the role of detected autophagy
(§5) Concomitant treatment of R-830-Cb and autophagy inhibitors chloroquine and 3-MA was performed to determine the nature of detected autophagy. […] Cell viability was evaluated using CV assay after 72 h. […]
Finally, after 72 h incubation, cells were tripsynized, washed, resuspended in PBS, and analyzed by flow cytometry (CyFlow® Space Partec using the PartecFloMax® software (Munster, Germany)).

HCT116 cells [5] = assay: ROS/RNS generation, DHR 123 staining; type: cell-based, human; settings: HCT116, IC50 dose, 72 h
Text: as §1, §2, §3, §4, §5

1-Hydroxy-12-(thiophen-2′-carbonyl)-1,12-dicarba-closo-dodecaborane(12) [Compound R-830-Cb]
viability of primary peritoneal exudate cells [1]: completely non-toxic in the applied dose range
cell division (CFSE) (HCT116 cells [2]): more severely affected
autophagy (AO staining) (HCT116 cells [3]): intense autophagy
cell viability on co-treatment with chloroquine or 3-MA (HCT116 cells [4]): suppression of the autophagy process caused a drug-induced decrease in cell viability
reactive oxygen species production (HCT116 cells [5]): potent inhibition of ROS
